Holding throughout (assay): inhibition of tumour cell growth, NCI panel, 48 h
Test [1] has as its system NCI/ADR-RES ovarian.
Test [2] has as its system SR leukemia.
The subject of test [3] is HOP-62 NSCLC.
Test [4] deals with SK-OV-3 ovarian.
The subject of test [5] is UO-31 renal.
Test [6] has as its system M14 melanoma.
Test [7] has as its system NCI-H23 lung.
Test [8] relates to HL-60(TB) leukemia.
For test [9], the system named is OVCAR-8 ovarian.
For test [10], the system named is OVCAR-3 ovarian.

Values joined by “and” are separate entries in the source; they are usually repeats but may differ in a detail not shown here. Equal entries are not always repeated.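 1) Cells in 96-well plates. 2) Compound, 48 h, 5 concentrations. 3) Linear interpolation between surrounding doses. 4) Unreached endpoint = highest concentration. The concentration for 50% growth inhibition is given as GI50. TGI is the concentration that stops growth completely.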 Some results are limits rather than exact numbers.

Take `CC1=C/C(O)CC(=O)Cc2nc(co2)C(=O)N2CCC=C2C(=O)OC(C(C)C)C(C)/C=C\C(=O)NC/C=C\1` (stereo unspecified): the GI50 in test [1] was more than 100 µM; in test [2], more than 100 µM; in test [3], 19.1 µM; in test [5] it was 25.7 µM; in test [6] it was 23 µM; in [7], 14.2 µM. Moreover, the GI50 in test [8] is 14.5 µM; in test [9], 24.8 µM; in test [10] it was 13.6 µM. For the same compound, the TGI in test [1] was more than 100 µM; in test [2], > 100 µM and 44.6 µM; in [3], more than 100 µM; in [4], more than 100 µM; in [5], 91.7 µM; in test [6] it was > 100 µM and 42.3 µM. For the same compound, the TGI was 44.4 µM and 37.7 µM in test [7]; more than 100 µM in test [8]; > 100 µM and 35 µM in test [9]; 37.6 µM and 93.6 µM in test [10].
Regarding `O=C1C(CO)=C[C@@H](O)[C@H]2O[C@@H]12`, the TGI in test [1], in [2], in test [3], in test [4], in [5] and in [6] was more than 100 µM each time. Moreover, the TGI in [7], in [8], in test [9] and in test [10] was more than 100 µM throughout.
Regarding `CCCC(CCC)Oc1ccc(CCCC2=C(O)c3ccccc3C(=O)C2=O)cc1`, the GI50 in test [1] is 5.36 µM; in [2] it was 3.09 µM; in test [3], 7.6 µM; in test [4] it was 12.6 µM; in test [5], 2.69 µM; in test [6], 9.35 µM. Moreover, the GI50 in test [7] was 5.94 µM; in [8], 2.68 µM; in test [9] it was 10.2 µM; in test [10], 4.33 µM. The TGI in test [1] was 22.5 µM; in test [2] it was 8.3 µM; in test [3], 22.3 µM; in test [4], 28.3 µM; in test [5], 13.8 µM; in test [6] it was 22.2 µM. In addition, the TGI amounted to 21.1 µM in [7], 6.27 µM in test [8], 69.7 µM in [9] and 15 µM in [10].
`CN(N=O)C(=O)Nc1ccc(C(=O)O)cc1`: the TGI in test [1], in [2], in test [3], in test [4], in test [5] and in test [6] was more than 100 µM throughout. Besides, the TGI in test [7], in test [8], in test [9] and in test [10] was more than 100 µM each time.
Consider `Cc1ccc(N(/C=C/C(=O)C(F)(F)F)CC(=O)c2ccc(Cl)c(Cl)c2)cc1`, for which the GI50 was 2.76 µM in test [1]; 2.97 µM in [2]; 12.3 µM in test [3]; 5.77 µM in [5]; 4.79 µM in [6]; 10.3 µM in test [7]. The GI50 in [9] was 14.1 µM; in [10] it was 3.19 µM. Also, the TGI in test [1] turned out to be 13.4 µM; in test [2], 12.6 µM; in [3], 24.8 µM; in [5], 19.1 µM; in [6], 18.6 µM; in [7], 21.9 µM. The TGI in [9] came to 27.1 µM; in test [10] it was 16.3 µM.
On to `COC(=O)c1ccc(NC(N)=NCC(C)(C)COc2ccc(C(F)(F)F)cc2)nc1`, for which the GI50 in [1] is 1.68 µM; in test [3], 1.67 µM; in test [4] it was 1.8 µM; in [5], 1.35 µM; in test [7], 1.45 µM; in test [8] it was 1.79 µM. Further, in test [10], the GI50 was 1.64 µM. Also, the TGI in [1] was 3.34 µM; in test [3] it was 3.2 µM; in test [4], 3.45 µM; in test [5], 2.7 µM; in test [7], 3.09 µM; in test [8], 3.56 µM. The same compound yielded a TGI in [10] of 3.17 µM.
As to `C=C(CN(C)Cc1ccccc1)c1ccc(C(=O)Nc2ccccc2N)cc1`, the GI50 in [1] is 1.07 µM; in [2], 2.87 µM; in test [3] it was 3.61 µM; in test [4], 5.28 µM; in [5], 2.08 µM; in test [6], 13.4 µM. In addition, the values for the GI50 in [7], in test [9] and in test [10] were 0.397 µM, 1.56 µM and 3.56 µM, respectively. For the same compound, the TGI in test [1] is 4.94 µM; in test [2], more than 50 µM; in [3], more than 50 µM; in test [4], 14.4 µM; in test [5], 8.41 µM; in test [6], 41.2 µM. Also, the TGI in test [7] turned out to be 7.93 µM; in test [9] it was 14.4 µM; in [10], 16 µM.
As for `COc1cccc2c1C(=O)c1c(O)c3c(c(O)c1C2=O)C[C@@](O)(C(C)=O)C[C@@H]3OC1CC(O)C(O)C(C)O1` (stereo partly specified), the GI50 in test [1] is 0.000214 µM; in [2], 0.089 µM and 0.0887 µM; in test [6] it was 2.7 µM. The TGI in [2] is 0.451 µM and 0.497 µM; in test [3], 7.09 µM and 1.78 µM; in [4], 8.99 µM and 42.6 µM; in [5], 10 µM; in [6], 18 µM; in test [7], 6.17 µM and 4.32 µM. In addition, the TGI in test [8] was 1.94 µM and 1.2 µM; in test [10], 23.6 µM.
On to `C[n+]1cc2cc3c(cc2c2ccccc21)OCO3`, for which the GI50 in test [1] was more than 100 µM; in [2] it was 3.78 µM; in [3] it was 6.62 µM; in test [4], 7.96 µM; in test [5], 27.8 µM; in test [6], 16 µM. For the same compound, the GI50 in test [7] was 2.37 µM; in test [9], 3.04 µM; in [10], 3.13 µM. For the same compound, the TGI in [1] is more than 100 µM; in test [2] it was more than 100 µM; in test [3], 43.2 µM; in test [4], more than 100 µM; in test [5], more than 100 µM; in test [6], more than 100 µM. Moreover, the TGI in [7] was determined as 13.6 µM; in [9], 30.5 µM; in test [10] it was 19.4 µM.
